In BindingDB's records for doi:10.1021/jm980718d (University of Massachusetts Medical Center, 1999):

Molecular target: Uracil-DNA glycosylase (Human herpesvirus 1) (UniProt P10186)
Assay: Inhibitory potency against HSV-1 Uracil-DNA glycosylase

Chain of Uracil-DNA glycosylase (Human herpesvirus 1) (P10186 whole entry, looked up): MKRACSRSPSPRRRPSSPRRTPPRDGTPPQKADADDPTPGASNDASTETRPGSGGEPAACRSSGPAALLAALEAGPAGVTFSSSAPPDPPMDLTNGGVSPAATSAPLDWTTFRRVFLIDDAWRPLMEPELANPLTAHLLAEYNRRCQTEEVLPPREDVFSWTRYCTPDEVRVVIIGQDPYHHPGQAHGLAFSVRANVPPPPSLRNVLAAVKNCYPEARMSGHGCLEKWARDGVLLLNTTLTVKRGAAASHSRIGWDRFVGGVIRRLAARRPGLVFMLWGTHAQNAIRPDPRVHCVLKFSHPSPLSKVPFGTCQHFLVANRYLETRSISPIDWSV

Going from `CCCCCCCCc1ccc(Nc2cc(=O)[nH]c(=O)[nH]2)cc1` [6-(4-Octyl-phenylamino)-1H-pyrimidine-2,4-dione] to `CCCCCCCCCCc1ccc(Nc2cc(=O)[nH]c(=O)[nH]2)cc1` [6-(4-Decyl-phenylamino)-1H-pyrimidine-2,4-dione], the IC50 rises from 8 µM to 35 µM (4.4-fold).

Going from `CCCCCCCCc1ccc(Nc2cc(=O)[nH]c(=O)n2CCO)cc1` [1-(2-Hydroxy-ethyl)-6-(4-octyl-phenylamino)-1H-pyrimidine-2,4-dione] to `CCCCCCCCc1ccc(Nc2cc(=O)[nH]c(=O)n2CCOC)cc1` [1-(2-Methoxy-ethyl)-6-(4-octyl-phenylamino)-1H-pyrimidine-2,4-dione], the IC50 rises from 10 µM to 15 µM (1.5-fold). The first is the more potent here.

First: CCCCCCCCOc1ccc(Nc2cc(=O)[nH]c(=O)[nH]2)cc1 [6-(4-Octyloxy-phenylamino)-1H-pyrimidine-2,4-dione]
Second: CCCCCCCCc1ccc(Oc2cc(=O)[nH]c(=O)[nH]2)cc1 [6-(4-Octyl-phenoxy)-1H-pyrimidine-2,4-dione]
The IC50 of the first is 6-fold lower: 25 µM for the first, 150 µM for the second. The first is the more potent here.

Molecular target: Uracil-DNA glycosylase (Human herpesvirus 1) (UniProt P10186)
Assay: Inhibitory potency against HSV-1 UDG (Herpes Simplex virus type-I Uracil DNA glycosylase)

`CCCCCCOc1ccc(Nc2cc(=O)[nH]c(=O)[nH]2)cc1` [6-(4-Hexyloxy-phenylamino)-1H-pyrimidine-2,4-dione] and `CCCCCCc1ccc(Nc2cc(=O)[nH]c(=O)[nH]2)cc1` [6-(4-Hexyl-phenylamino)-1H-pyrimidine-2,4-dione] are the same in IC50: 30 µM for the first, 30 µM for the second.

Compared with `CCCCCCc1ccc(Nc2cc(=O)[nH]c(=O)n2CCO)cc1` [6-(4-Hexyl-phenylamino)-1-(2-hydroxy-ethyl)-1H-pyrimidine-2,4-dione], `CCCCCCc1ccc(Nc2cc(=O)[nH]c(=O)n2CCCO)cc1` [6-(4-Hexyl-phenylamino)-1-(3-hydroxy-propyl)-1H-pyrimidine-2,4-dione] is 4.5-fold higher in IC50: 20 µM for the first, 90 µM for the second.

`CCCCCCc1ccc(Nc2cc(=O)[nH]c(=O)n2CCOC)cc1` [6-(4-Hexyl-phenylamino)-1-(2-methoxy-ethyl)-1H-pyrimidine-2,4-dione] and `CCCCCCc1ccc(Nc2cc(=O)[nH]c(=O)n2CCCOC)cc1` [6-(4-Hexyl-phenylamino)-1-(3-methoxy-propyl)-1H-pyrimidine-2,4-dione] cannot be ordered by IC50: over 100 µM for the first, over 100 µM for the second.

Compound `CCc1ccc(Nc2cc(=O)[nH]c(=O)[nH]2)cc1` [6-(4-Ethyl-phenylamino)-1H-pyrimidine-2,4-dione] has an IC50 of 500 µM.
